{
  "source": "patent US8404665B2",
  "about": "“In vivo use of glutathione S-transferase activated nitric oxide donors” (University of Utah Research Foundation, priority 2002, dated 2013)",
  "key": {"DLD-1": {"system": "DLD-1", "experiment": "DLD-1 solid tumor cell growth", "type": "cell-based", "procedure": "Cell Lines and Culture Conditions. HL-60, DLD1, and U937 cells were obtained from ATCC (Rockville, Md.). Meth A cells were from Dr. Wolfram Samlowski (University of Utah, Salt Lake City, Utah). The PPC-1 cell line was provided by Dr. Graeme Bolger (University of Alabama, Birmingham, Ala.). For the cell growth and apoptosis experiments, cells were cultured at a density of 150,000 cells/ml in RPMI-1640 with 10% fetal bovine serum at 37° C. in a 5% CO2 humidified atmosphere. Agents were added at the indicated concentrations 24 h after culture initiation. At the indicated time intervals, cells were harvested and washed twice in phosphate buffered saline (PBS) prior to processing for analysis of growth, differentiation, and apoptosis.\nCell Growth, Differentiation and Apoptosis Assays. The number of viable cells was determined using the MTT assay according to the manufacturer's protocol (Promega, Madison, Wis.) or using a Coulter counter. […] The assay is useful in calorimetric quantitation of cell viability and proliferation. In contrast, cell differentiation was evaluated using Wright and Non-Specific Esterase (NSE) staining of cells collected on microscope slides by cytospin as previously described (Magrinat, G. et al. (1992) Blood 80: 1880-1884). […]"}, "[1]": {"system": "58 human cancer cell lines", "type": "cell-based", "procedure": "Anticancer screen of JS-K against the NCI 58 human cancer cell lines. Cells initially maintained in multiple T150 tissue-culture flasks were detached from the flasks by addition of 2-3 ml of 0.05% trypsin-EDTA when cells reached 70-90% confluency. Thereafter, trypsin was inactivated by addition of 10 ml of RPMI 1640 medium containing 5% fetal bovine serum. All cells were then transferred and seeded onto 96-well microtiter plates at densities between 5,000 and 30,000 cells per well. Three cell lines were inoculated per plate. The cells were grown in RPMI 1640 supplemented with 5% fetal bovine serum and 2 mM L-glutamine for 24 h at 37° C. to allow stabilization prior to addition of JS-K. A total of 58 human cancer cell lines were used for the broad screening. The stock solution of JS-K in DMSO was serially diluted with the RPMI 1640 medium and added immediately to the microtiter plates to produce five concentrations of JS-K, i.e., 10^−4, 10^−5, 10^−6, 10^−7 and 10^−8 M. JS-K was incubated with cells for 48 h.\nAt the end of incubation, the cells were fixed in situ by 10% trichloroacetic acid, and washed five times with water and dried. Sulforhodamine B (0.4% in 1% acetic acid), a protein stain binding to basic amino acids of cellular macromolecules, was added to each well, and incubated for 10 min at room temperature. Unbound Sulforhodamine B is removed by washing five times with acetic acid. Then the plates were air-dried. Bound stain is solubilized with Tris buffer, and the optical densities were read at 515 nm. The optical densities generated from Sulforhodamine B staining are a function of cell mass and growth rate (Monks et al., 1991). Thus cells with small mass (e.g., leukemias) or relatively slow division rate (e.g., renal RXF393 and lung cancer HOP-92) were inoculated at the relatively high densities of 20,000-30,000 cells per well, while more rapidly dividing cells (e.g., colon HT29 and HCT-116 cell lines, and lung NCI-H460 cells) were inoculated at 5,000 cells per well. For the suspended leukemia cell subpanel, the cells were fixed to the bottom of the microtiter well by adding cold trichloroacetic acid (final concentration 16%) at the end of the drug-incubation period.\nThe dose-response curve is created by plotting the % growth against the log10 of the corresponding JS-K concentrations for each cell line by disease subpanel group. Three horizontal lines are provided at the % growth values of 50, 0 and −50, respectively. Thus the molar JS-K concentrations corresponding to points where the curves cross these lines represent the interpolated values that cause 50% growth inhibition (GI50, the JS-K concentration causing a 50% reduction in the net protein increase in control cells), total growth inhibition (TGI, the JS-K concentration causing amount of protein at the end of incubation to be equal to the amount at the beginning) and 50% cell killing (LC50, the JS-K concentration causing a 50% reduction in the protein of treated cells at the end of the drug incubation, compared with that at the beginning, indicating a net loss of cells following drug treatment), respectively."}},
  "data": [
    {"compound": "CCOC(=O)N1CCN(/[N+]([O-])=N/Oc2ccc([N+](=O)[O-])cc2[N+](=O)[O-])CC1", "note": "[JS-K, O^2-(2,4-dinitrophenyl) 1-[(4-ethoxycarbonyl)piperazin-1-yl]diazen-1-ium-1,2-diolate]", "values": [
      {"measurement": "IC50 relative to leukemia lines", "setting": "DLD-1", "value": "an order of magnitude greater than those for the two leukemia lines"},
      {"measurement": "CC50", "setting": "[1]", "value": 29.5, "unit": "µM"},
      {"measurement": "relative sensitivity to cytostatic and cytotoxic effects", "setting": "[1]", "value": "most sensitive"},
      {"measurement": "GI50", "setting": "[1]; 58 human cell lines, 48 h", "value": 1.3, "unit": "µM"},
      {"measurement": "mean TGI", "setting": "[1]; 58 human cell lines, 48 h", "value": 6.6, "unit": "µM"},
      {"measurement": "inhibition against prostate cancer cell lines", "setting": "[1]; prostate cancer cell lines", "value": "moderate inhibition"},
      {"measurement": "LC50s", "setting": "[1]; some cell lines within the colon, melanoma and breast cancer subpanels", "value": "more than 100 μM"}
    ]}
  ]
}
